Usually Kd stands for the concentration at which binding is half-saturated. Higher therefore signals weaker binding.

In this assay the target is T1, 3-phosphoinositide-dependent protein kinase 1 [50-359] (Homo sapiens, UniProt O15530).
T1 construct: 50-359
T1 sequence (O15530 whole entry): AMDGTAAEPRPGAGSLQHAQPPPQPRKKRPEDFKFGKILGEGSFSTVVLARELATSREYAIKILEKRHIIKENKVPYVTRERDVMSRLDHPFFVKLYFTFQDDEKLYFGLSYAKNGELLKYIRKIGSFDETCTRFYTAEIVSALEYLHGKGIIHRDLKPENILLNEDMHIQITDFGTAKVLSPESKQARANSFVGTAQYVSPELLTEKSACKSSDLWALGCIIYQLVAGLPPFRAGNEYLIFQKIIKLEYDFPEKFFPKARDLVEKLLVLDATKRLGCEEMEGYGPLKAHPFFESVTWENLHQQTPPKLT
In words: Isothermal titration calorimetry. The settings on record: pH 7.4. How it is done: For the titrations of PDK1 with adenosine, the protein and the compound were prepared in 50 mMTris-HCl (pH 7.4), 200 mM NaCl, 1 mM DTT and 1% v/v DMSO. For the titration of PDK1 with PS653 theprotein and the compound were prepared in 50 mM Tris-HCl (pH 7.4), 200 mM NaCl, 1 mM DTT and 5% v/vDMSO. […] The titrationof PDK1 with adenosine was performed at 25 C, and the titration of PDK1 with PS653 was made at 37 C. Rawcalorimetric data were corrected for heats of dilution. Binding stoichiometries, enthalpy values and Kd valueswere determined by fitting corrected data to
(In ITC the heat of successive injections is recorded.)

For the compound `O=C1c2ccccc2-c2n[nH]c3cccc1c23` [SP-600125], the Kd came to 1.25 µM.

The values are drawn from BindingDB's records for doi:10.1016/j.chembiol.2016.06.017 (Universitätsklinikum Frankfurt, 2016).
